Molecular target: human Kv1.3 (Homo sapiens (Human), UniProt P22001)
Test: Kv1.3 potency evaluation, automated patch clamp electrophysiology (QPatch HT) in CHO-Kv1.3 cells
Format: cell-based
Settings: whole-cell QPatch HT, % inhibition of charge, step to +30 mV, four concentrations, N≥3 cells, read-out: hKv1.3 IC50
Method in brief: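 Automated whole-cell patch clamp in CHO cells stably expressing human Kv1.3; steps from −80 to +30 mV (500 ms) at 0.067 Hz. Four cumulative concentrations after vehicle (0.1-0.3% DMSO); charge inhibition vs vehicle fitted by four-parameter logistic for IC50, N≥3 cells.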

Chain of human Kv1.3 (P22001 whole entry): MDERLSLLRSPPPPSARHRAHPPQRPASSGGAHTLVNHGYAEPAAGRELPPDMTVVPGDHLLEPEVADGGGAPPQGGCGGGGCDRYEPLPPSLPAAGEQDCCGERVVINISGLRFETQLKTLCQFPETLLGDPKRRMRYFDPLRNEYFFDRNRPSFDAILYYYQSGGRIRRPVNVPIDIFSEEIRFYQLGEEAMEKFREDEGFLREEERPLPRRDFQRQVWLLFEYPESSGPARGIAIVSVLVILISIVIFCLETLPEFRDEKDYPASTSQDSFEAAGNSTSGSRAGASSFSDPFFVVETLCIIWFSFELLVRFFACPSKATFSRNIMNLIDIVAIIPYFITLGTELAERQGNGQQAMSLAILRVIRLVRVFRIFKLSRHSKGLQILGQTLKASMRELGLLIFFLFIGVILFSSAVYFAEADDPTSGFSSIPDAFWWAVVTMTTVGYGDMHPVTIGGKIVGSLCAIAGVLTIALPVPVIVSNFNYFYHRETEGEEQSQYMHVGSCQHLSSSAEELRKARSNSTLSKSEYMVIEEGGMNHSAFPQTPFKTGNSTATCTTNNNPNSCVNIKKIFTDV

SMILES	IC50
CC1(C)N=C(C23CC(N(Cc4ccc(Cl)c(F)c4)S(=O)(=O)c4ccccc4)(C2)C3)N[C@H]1C(=O)N1CC(C(F)(F)F)C1 (mixture of isomers) [Example 172]	0.103 µM
CCCS(=O)(=O)N(Cc1ccc(Cl)c(Cl)c1)C12CC(C3=NC(C)(C)[C@H](C(=O)NC4CCC(F)(F)CC4)N3)(C1)C2 (mixture of isomers) [Example 174]	0.103 µM
CC(C)(C)NC(=O)[C@@H]1NC(C23CC(N(Cc4ccc(Cl)c(F)c4)S(=O)(=O)c4ccccc4)(C2)C3)=NC1(C)C (mixture of isomers) [Example 175]	0.104 µM
CC(F)(F)CCS(=O)(=O)N(Cc1ccc(Cl)c(Cl)c1)C12CC(C3=NC(C)(C)[C@H](C(=O)N4CCC(F)(F)CC4)N3)(C1)C2 (mixture of isomers) [Example 176]	0.104 µM
CC1(C)N=C(C23CC(N(Cc4ccc(Cl)c(Cl)c4)S(=O)(=O)CCC(F)F)(C2)C3)N[C@H]1C(=O)NC1CC(C(F)F)C1 (mixture of isomers) [Example 177]	0.104 µM
CC1(C)N=C(C23CC(N(Cc4ccc(Cl)c(F)c4)S(=O)(=O)c4ccccc4)(C2)C3)N[C@H]1C(=O)N1CCC[C@@H](C(F)(F)F)C1 (mixture of isomers) [Example 178]	0.105 µM
CC1(C)N=C(C23CC(N(Cc4ccc(Cl)c(Cl)c4)S(=O)(=O)CCC(F)F)(C2)C3)N[C@H]1C(=O)NC[C@H]1CC1(F)F (mixture of isomers) [Example 179]	0.105 µM
CC1(C)N=C(C23CC(N(Cc4ccc(Cl)cc4)S(=O)(=O)c4ccccc4O)(C2)C3)N[C@H]1C(=O)NCCC(F)(F)F (mixture of isomers) [Example 180]	0.106 µM
CN(CC(F)(F)C(F)(F)F)C(=O)[C@@H]1NC(C23CC(N(Cc4ccc(Cl)c(F)c4)S(=O)(=O)c4ccccc4)(C2)C3)=NC1(C)C (mixture of isomers) [Example 181]	0.106 µM
CN(C[C@H]1CC1(F)F)C(=O)[C@@H]1NC(C23CC(N(Cc4ccc(Cl)c(Cl)c4)S(=O)(=O)CCC(F)F)(C2)C3)=NC1(C)C (mixture of isomers) [Example 183]	0.108 µM
CC1N=C(C23CC(N(Cc4ccc(C(F)(F)F)cc4)S(=O)(=O)c4ccc(F)cc4)(C2)C3)N[C@@]1(C)C(=O)NCC1CCC1 (mixture of isomers) [Example 184]	0.109 µM
CC1(C)N=C(C23CC(N(Cc4ccc(Cl)c(F)c4)S(=O)(=O)c4ccccc4)(C2)C3)N[C@H]1C(=O)N1CCCC1 (mixture of isomers) [Example 185]	0.109 µM
CCCS(=O)(=O)N(Cc1ccc(Cl)c(Cl)c1)C12CC(C3=NC(C)(C)[C@H](C(=O)N4CC5CCC(C4)C5(F)F)N3)(C1)C2 (mixture of isomers) [Example 187]	0.11 µM
CC1(C)N=C(C23CC(N(Cc4ccc(Cl)c(F)c4)S(=O)(=O)c4ccccc4)(C2)C3)N[C@H]1C(=O)N1CCC(C(F)(F)F)CC1 (mixture of isomers) [Example 188]	0.112 µM
CC1(C)N=C(C23CC(N(Cc4ccc(Cl)c(Cl)c4)S(=O)(=O)c4ccccc4)(C2)C3)N[C@H]1C(=O)NC1CC1C(F)(F)F (mixture of isomers) [Example 189]	0.112 µM
CCCS(=O)(=O)N(Cc1ccc(Cl)c(Cl)c1)C12CC(C3=NC(C)(C)[C@H](C(=O)N4C5CCC4CC(F)(F)C5)N3)(C1)C2 (mixture of isomers) [Example 190]	0.113 µM
CC1(C)N=C(C23CC(N(Cc4ccc(Cl)cc4)S(=O)(=O)c4ccccc4[N+](=O)[O-])(C2)C3)N[C@H]1C(=O)NCCC(F)(F)F (mixture of isomers) [Example 191]	0.114 µM
CC1(C)N=C(C23CC(N(Cc4ccc(Cl)c(Cl)c4)S(=O)(=O)CCC(F)F)(C2)C3)N[C@H]1C(=O)N1CCC(F)(F)CC1 (mixture of isomers) [Example 194]	0.121 µM
CC1(C)N=C(C23CC(N(Cc4ccc(Cl)c(Cl)c4)S(=O)(=O)c4ccccc4)(C2)C3)N[C@H]1C(=O)N1CC2(C1)CC(F)(F)C2 (mixture of isomers) [Example 195]	0.124 µM
CC(C)NC(=O)[C@]1(C)CN=C(C23CC(N(Cc4ccc(C(F)(F)F)cc4)S(=O)(=O)c4ccc(F)cc4)(C2)C3)N1 (mixture of isomers) [Example 196]	0.125 µM
CC1(C)N=C(C23CC(N(Cc4ccc(C(F)(F)F)c(F)c4)S(=O)(=O)c4ccccc4)(C2)C3)N[C@H]1C(=O)NCCC(F)(F)F (mixture of isomers) [Example 197]	0.126 µM
CC1(C)N=C(C23CC(N(Cc4ccc(Cl)c(F)c4)S(=O)(=O)c4ccccc4)(C2)C3)N[C@H]1C(=O)N1CC2(C1)CC(F)(F)C2 (mixture of isomers) [Example 198]	0.126 µM
C[C@]1(C(=O)NC2CCC2)CN=C(C23CC(N(Cc4ccc(C(F)(F)F)cc4)S(=O)(=O)c4ccc(F)cc4)(C2)C3)N1 (mixture of isomers) [Example 199]	0.129 µM
CC1(C)N=C(C23CC(N(Cc4ccc(Cl)c(F)c4)S(=O)(=O)c4ccccc4)(C2)C3)N[C@H]1C(=O)N1CCC(F)(F)C(C)(C)C1 (mixture of isomers) [Example 200]	0.129 µM

SMILES	IC50
CC1(C)N=C(C23CC(N(Cc4ccc(Cl)cc4)S(=O)(=O)CCC(F)(F)F)(C2)C3)N[C@H]1C(=O)NCCC(F)(F)F (mixture of isomers) [Example 201]	0.131 µM
C[C@]1(C(=O)NCCC(F)(F)F)CN=C(C23CC(N(Cc4ccc(C(F)(F)F)cc4)S(=O)(=O)c4ccc(F)cc4)(C2)C3)N1 (mixture of isomers) [Example 202]	0.134 µM
CC(C)(C)CNC(=O)[C@@H]1NC(C23CC(N(Cc4ccc(Cl)c(Cl)c4)S(=O)(=O)CCC(C)(F)F)(C2)C3)=NC1(C)C (mixture of isomers) [Example 203]	0.134 µM
CC1(C)N=C(C23CC(N(Cc4ccc(Cl)c(Cl)c4)S(=O)(=O)CCC(F)F)(C2)C3)N[C@H]1C(=O)NC1CC(C(F)F)C1 (mixture of isomers) [Example 204]	0.135 µM
CC1(C)N=C(C23CC(N(Cc4ccc(Cl)c(Cl)c4)S(=O)(=O)CCC(F)F)(C2)C3)N[C@H]1C(=O)NCC1CC(F)(F)C1 (mixture of isomers) [Example 205]	0.136 µM
CC1(C)N=C(C23CC(N(Cc4ccc(Cl)cc4)S(=O)(=O)CCCC(F)(F)F)(C2)C3)N[C@H]1C(=O)NCCC(F)(F)F (mixture of isomers) [Example 206]	0.137 µM
CN(CCC(F)(F)F)C(=O)[C@@H]1NC(C23CC(N(Cc4ccc(Cl)c(Cl)c4)S(=O)(=O)CCC(F)F)(C2)C3)=NC1(C)C (mixture of isomers) [Example 207]	0.137 µM
O=C(NCC1CCC1)[C@H]1CN=C(C23CC(N(Cc4ccc(C(F)(F)F)cc4)S(=O)(=O)c4ccc(F)cc4)(C2)C3)N1 (mixture of isomers) [Example 209]	0.144 µM
CC1(C)N=C(C23CC(N(Cc4ccc(Cl)c(Cl)c4)S(=O)(=O)CCC(F)F)(C2)C3)N[C@H]1C(=O)NCC(F)(F)C(F)(F)F (mixture of isomers) [Example 210]	0.144 µM
CC1N=C(C23CC(N(Cc4ccc(C(F)(F)F)cc4)S(=O)(=O)c4ccc(F)cc4)(C2)C3)N[C@@]1(C)C(=O)NCCC(F)(F)F (mixture of isomers) [Example 211]	0.148 µM
CC1(C)N=C(C23CC(N(Cc4ccc(Cl)cc4)S(=O)(=O)N4CCC(F)(F)C4)(C2)C3)N[C@H]1C(=O)NCCC(F)(F)F (mixture of isomers) [Example 212]	0.149 µM
CC(C)NC(=O)[C@@]1(C)CN=C(C23CC(N(Cc4ccc(C(F)(F)F)cc4)S(=O)(=O)c4ccc(F)cc4)(C2)C3)N1C (mixture of isomers) [Example 213]	0.152 µM
C[C@]1(C(=O)NCC2CCC2)CN=C(C23CC(N(Cc4ccc(C(F)(F)F)cc4)S(=O)(=O)c4ccc(F)cc4)(C2)C3)N1 (mixture of isomers) [Example 214]	0.159 µM
CN(CC(F)(F)C(F)(F)F)C(=O)[C@@H]1NC(C23CC(N(Cc4ccc(Cl)c(Cl)c4)S(=O)(=O)c4ccccc4)(C2)C3)=NC1(C)C (mixture of isomers) [Example 215]	0.159 µM
CCCS(=O)(=O)N(Cc1ccc(Cl)c(Cl)c1)C12CC(C3=NC(C)(C)[C@H](C(=O)NCCCC(F)(F)F)N3)(C1)C2 (mixture of isomers) [Example 216]	0.163 µM
CC1(C)N=C(C23CC(N(Cc4ccc(C(F)(F)F)cc4)S(=O)(=O)c4ccc(F)cc4)(C2)C3)N[C@H]1C(=O)NCCC(F)(F)F (mixture of isomers) [Example 217]	0.167 µM
C[C@]1(C(=O)NCC2CC2)CN=C(C23CC(N(Cc4ccc(C(F)(F)F)cc4)S(=O)(=O)c4ccc(F)cc4)(C2)C3)N1 (mixture of isomers) [Example 218]	0.168 µM
Cc1ccccc1S(=O)(=O)N(Cc1ccc(Cl)cc1)C12CC(C3=NC(C)(C)[C@H](C(=O)NCCC(F)(F)F)N3)(C1)C2 (mixture of isomers) [Example 219]	0.168 µM
CC1(C)N=C(C23CC(N(Cc4ccc(C(F)(F)F)c(Cl)c4)S(=O)(=O)c4ccccc4)(C2)C3)N[C@H]1C(=O)NCCC(F)(F)F (mixture of isomers) [Example 221]	0.169 µM
CC(F)(F)CCS(=O)(=O)N(Cc1ccc(Cl)c(F)c1)C12CC(C3=NC(C)(C)[C@H](C(=O)NCC(F)(F)C(F)(F)F)N3)(C1)C2 (mixture of isomers) [Example 222]	0.17 µM
CC1(C)N=C(C23CC(N(Cc4ccc(Cl)c(C#N)c4)S(=O)(=O)c4ccccc4)(C2)C3)N[C@H]1C(=O)NCCC(F)(F)F (mixture of isomers) [Example 223]	0.177 µM
CC1(C)N=C(C23CC(N(Cc4ccc(Cl)c(F)c4)S(=O)(=O)c4ccccc4O)(C2)C3)N[C@H]1C(=O)NCCC(F)(F)F (mixture of isomers) [Example 225]	0.182 µM
CC1(C)N=C(C23CC(N(Cc4ccc(Cl)c(Cl)c4)S(=O)(=O)c4ccccc4O)(C2)C3)N[C@H]1C(=O)NCCC(F)(F)F (mixture of isomers) [Example 226]	0.185 µM
C[C@]1(C(=O)NCC2CC(F)(F)C2)CN=C(C23CC(N(Cc4ccc(C(F)(F)F)cc4)S(=O)(=O)c4ccc(F)cc4)(C2)C3)N1 (mixture of isomers) [Example 227]	0.186 µM

Source: patent US12128028B2, “Heterocyclic sulfonamide derivatives and pharmaceutical uses thereof” (METRION BIOSCIENCES LIMITED, priority 2018, dated 2024)
